Data as given in patent US20220289794A1, “SYNTHETIC ANTIMICROBIAL PEPTIDES” (priority 2019, published 2022).
Like-named read-outs stand apart in the source and are kept apart here.

Columns and labels:
[1] = system: Pseudomonas aeruginosa (PSA, ATCC 27883); test: Synergy checkerboard assay (FIC index); format: cell-based; details: Pseudomonas aeruginosa (ATCC 27883), antibiotic alone
[2] = system: Escherichia coli (E. Coli, ATCC 25922); details: Escherichia coli (ATCC 25922); antibiotic alone
[3] = system: Pseudomonas aeruginosa (ATCC 27883); test: microbe, parasite or virus in culture; details: ATCC27883, read-out: PSA (ATCC 27883 MIC)
[4] = system: Escherichia coli (ATCC 25922); test: microbe, parasite or virus in culture; details: ATCC25922, read-out: E. coli (ATCC 25922) MIC
[5] = system: Methicillin-resistant Staphylococcus aureus MRSA (ATCC BAA-1556); test: microbe, parasite or virus in culture; details: ATCCBAA1556|MRSA, 24 h
[6] = system: Pseudomonas aeruginosa (PSA, ATCC 27883); test: microbe, parasite or virus in culture; details: ATCC27883, 24 h
[7] = system: Escherichia coli (E. Coli, ATCC 25922); test: microbe, parasite or virus in culture; details: ATCC25922, 24 h
[8] = system: Enterococcus faecium ATCC 27270; test: microbe, parasite or virus in culture; details: ATCC27270
[9] = system: Enterococcus faecium ATCC 700221; test: microbe, parasite or virus in culture; details: ATCC700221
[10] = system: Staphylococcus aureus ATCC 29213; test: microbe, parasite or virus in culture; details: ATCC29213
[11] = system: Enterococcus faecalis ATCC 29212; test: microbe, parasite or virus in culture; details: ATCC29212
[12] = system: Enterococcus faecalis ATCC 51575; test: microbe, parasite or virus in culture; details: ATCC51575
[13] = system: Streptococcus pneumoniae ATCC 49619; test: microbe, parasite or virus in culture; details: ATCC49619
[14] = system: Streptococcus pneumoniae ATCC 51938; test: microbe, parasite or virus in culture; details: ATCC51938
MRSA = test: microbe, parasite or virus in culture; details: Staphylococcus aureus
KPC = test: microbe, parasite or virus in culture; details: Klebsiella pneumoniae, ATCCBAA1705, read-out: MIC Klebsiella pneumoniae (ATCC BAA-1705)
PSA = test: microbe, parasite or virus in culture; details: Pseudomonas aeruginosa, ATCC27883, read-out: MIC Pseudomonas aeruginosa (ATCC 27883)
E. coli = test: microbe, parasite or virus in culture; details: Escherichia coli, ATCC25922, read-out: MIC Escherichia coli (ATCC 25922)
[15] = system: Bacillus subtilis (ATCC-6633); test: microbe, parasite or virus in culture; details: ATCC6633
[16] = system: Bacillus cereus (ATCC-13061); test: microbe, parasite or virus in culture; details: ATCC13061

C[C@@H](O)[C@H]1C(=O)N2C(C(=O)O)=C(S[C@@H]3CN[C@H](C(=O)N(C)C)C3)[C@H](C)[C@H]12 [Meropenem]
0.125 mg/L: MIC (E. coli)
0.5 mg/L: MIC [8] | MIC (PSA)
64 mg/L: MIC [9]
8 mg/L: MIC [12] | MIC (KPC)
0.25 mg/L: MIC [10] | MIC [13] | MIC [14] | MIC [15]
1 mg/L: MIC of antibiotic [1] | MIC of antibiotic ([1]; Table 26) | antibiotic MIC ([1]; Table 27) | MIC of antibiotic [2] | MIC [3] | MIC [4] | MIC ([6]; read-out: Pseudomonas aeruginosa (ATCC 27883) MIC, Table 28, IFX-031, antibiotics alone and PHY-MIX (1:1 w/w)) | MIC ([6]; read-out: Pseudomonas aeruginosa (ATCC 27883) MIC, Table 29, [R6W4] (IFX-318), antibiotics alone and PHY-MIX (1:1 w/w)) | MIC ([6]; read-out: Pseudomonas aeruginosa (ATCC 27883) MIC, Table 30, [R5W4K] (IFX-315), antibiotics alone and PHY-MIX (1:1 w/w)) | MIC ([6]; read-out: Pseudomonas aeruginosa (ATCC 27883) MIC, Table 31, [R5W4] (IFX-301), antibiotics alone and PHY-MIX (1:1 w/w)) | MIC ([6]; read-out: Pseudomonas aeruginosa (ATCC 27883) MIC, Table 32, meropenem, IFX-315, their conjugate and Phy-Mix 1:1) | MIC ([7]; read-out: Escherichia coli (ATCC 25922) MIC, Table 29, [R6W4] (IFX-318), antibiotics alone and PHY-MIX (1:1 w/w)) | MIC ([7]; read-out: Escherichia coli (ATCC 25922) MIC, Table 30, [R5W4K] (IFX-315), antibiotics alone and PHY-MIX (1:1 w/w)) | MIC ([7]; read-out: Escherichia coli (ATCC 25922) MIC, Table 31, [R5W4] (IFX-301), antibiotics alone and PHY-MIX (1:1 w/w)) | MIC ([7]; read-out: Escherichia coli (ATCC 25922) MIC, Table 32, meropenem, IFX-315, their conjugate and Phy-Mix 1:1)
2 mg/L: MIC ([5]; read-out: MRSA (ATCC BAA-1556) MIC, Table 29, [R6W4] (IFX-318), antibiotics alone and PHY-MIX (1:1 w/w)) | MIC ([5]; read-out: MRSA (ATCC BAA-1556) MIC, Table 30, [R5W4K] (IFX-315), antibiotics alone and PHY-MIX (1:1 w/w)) | MIC ([5]; read-out: MRSA (ATCC BAA-1556) MIC, Table 31, [R5W4] (IFX-301), antibiotics alone and PHY-MIX (1:1 w/w)) | MIC ([5]; read-out: MRSA (ATCC BAA-1556) MIC, Table 32, meropenem, IFX-315, their conjugate and Phy-Mix 1:1) | MIC [11] | MIC (MRSA; MRSA)
4 mg/L: MIC (MRSA; ATCCBAA1556 / MRSA, read-out: MIC MRSA (ATCC BAA-1556)) | MIC [16]
